# Data: PubChem BioAssay AID2060611 (Molecular Pharmacology Branch, DTP, NCI, 2025)
# Values joined by “and” are separate entries in the source; they are usually repeats but may differ in a detail not shown here. Equal values may be shown once.
# System: 628569-122-R-J1-PDC complex spheroid viability
# Experiment: Anticancer human tumor 628569-122-R-J1-PDC patient-derived head and neck squamous carcinoma cell line growth inhibition [CLK]
# Conditions: for viability, T/C: stronger effect = lower value
# Source text: A high-throughput screen of multi-cell type tumor spheroids was designed to identify active combinations of […] and targeted small molecules. Complex spheroids include a stromal component modeled by human endothelial cells (HUVEC) and fibroblasts modeled by human mesenchymal stem cells (MSCs). The concentration ranges selected for each drug and investigational agent were based upon clinically achievable concentrations if the clinical Cmax of the agent was known.
# Compounds. The drugs and investigational agents: cirtuvivint (SM08502; NSC835563), CC-671 (NSC850746), vemurafenib (NSC761431), tapotoclax (NSC804041), sotorasib (NSC818433), adagrasib (NSC831453), MRTX-1133 (NSC836407), BAY2416964 (NSC825713), copanlisib (NSC816437), inavolisib (NSC800729), abemaciclib (NSC768073), osimertinib (NSC779217), entinostat (NSC756642), eltanexor (KPT-8602, NSC794443), venetoclax (NSC766270), ceralasertib (NSC777638), bortezomib (NSC756655), olaparib (NSC753686), talazoparib (NSC767125), alisertib (NSC759677), peposertib (NSC802822), gemcitabine (NSC613327), 5-fluorouracil (NSC19893), SN-38 (NSC673596), oxaliplatin (NSC266046), paclitaxel (NSC125973), and doxorubicin (NSC123127), were obtained from the National Cancer Institute (NCI) Developmental Therapeutics Program Chemical Repository. The FDA-approved anticancer drug set is available from the Developmental Therapeutics Program at https://dtp.cancer.gov/organization/dscb/obtaining/available plates.htm. […] The stock solutions were prepared in dimethyl sulfoxide (DMSO, Sigma-Aldrich, St. Louis, MO, cat. D2650), except for the platinum complexes which were prepared in saline (Quality Biological, Gaithersburg, MD, cat. 114-055-101), at 800-fold the tested concentration and stored at -70 degrees C prior to their use. All drugs and investigational agents were tested over a range starting from a high concentration at or near the clinical Cmax and decreasing in half-log increments. If the clinical Cmax for an agent had not been determined, the highest concentration tested was 10 microM.
# Cell Culture. All cells were maintained in an incubator at 37 degrees C and 5% CO2 with 95% humidity. The PDC lines were cultured according to standard operating procedures established by the NCI PDMR. Briefly, all PDCs were thawed and cultured in Matrigel-coated flasks prepared with a working solution of 1X Ham's F-12 nutrient mix, without supplementation (Invitrogen, Waltham, MA, cat. 11765054), 100 U/mL penicillin-streptomycin (Invitrogen, cat. 15140122), and 2.5% Matrigel (Corning Inc., Corning, NY, cat. 354248) for the first three passages. The 947758-054-R-J2-PDC line was cultured in 6B/Colon 1A media, which includes advanced DMEM/F-12 (Thermo Fisher Scientific, cat. 12634028), 10 mM HEPES (Thermo Fisher Scientific, cat. 15630080), 1X GlutaMAX supplement (Thermo Fisher Scientific, cat. 35050061), 0.1 mg/mL primocin (InvivoGen, cat. ant-pm-2), 10% defined fetal bovine serum, heat inactivated (HyClone Laboratories Inc., cat. SH30070.03HI), 1.25 mM N-Acetyl-L-cysteine (Sigma-Aldrich, cat. A9165), 10 mM nicotinamide (Sigma-Aldrich, cat. N0636), 1X B-27 supplement (Thermo Fisher Scientific, cat. 17504044), 1X N-2 supplement (Thermo Fisher Scientific, cat. 17502048), and 10 microM Y-27632 dihydrochloride (Tocris Bioscience, cat. 1254). The 876862-298-R-J1-PDC was cultured in 6E media, which includes all 6B/Colon 1A media components plus 50% L-WRN conditioned media (ATCC, cat. CRL-3276), 50 ng/mL recombinant human EGF recombinant protein (hEGF; Thermo Fisher Scientific, cat. PHG0311), 10 ng/mL recombinant human fibroblast growth factor 10 (hGFG-10; PeproTech, cat. 100-26), 1 ng/mL recombinant human fibroblast growth factor 2 (hFGF-2; PeproTech, cat. 100-18B), and 1 µM prostaglandin E2 (PGE2; Tocris, cat. 2296). The 227483-062-R1-J1-PDC line was cultured in Panc media, containing all 6E components except hFGF-2, with the addition of 500 nM SB-431542 (Selleckchem, cat. S1067) and 10 nM gastrin (Tocris, cat. 3006). […]
# 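Also: spheroids exposed to agents for seven days before readout.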
# 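For viability, T/C in this document: 100% = DMSO vehicle control viability.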
smiles,measurement,setting,value
C=C(F)C(=O)N1CCN(c2nc(OCC3CCCN3C)nc3c2CCN(c2cccc4cccc(Cl)c24)C3)CC1CC#N (centres undefined),"viability, T/C",compound 0.0316 µM,79.5% and 98.1%
same,"viability, T/C",compound 0.1 µM,108% and 77.6%
same,"viability, T/C",compound 0.316 µM,85.4% and 79.5%
same,"viability, T/C",compound 1 µM,93.6% and 82.5%
same,"viability, T/C",compound 3.16 µM,116% and 123%
same,"viability, T/C",compound 10 µM,12.6% and 30.3%
same,IC50,curve of compound,5.99 µM and 6.93 µM
C=CC(=O)N1CCN(c2nc(=O)n(-c3c(C)ccnc3C(C)C)c3nc(-c4c(O)cccc4F)c(F)cc23)C(C)C1 (centres undefined) + CNC(=O)c1ccc(Nc2nc(OC3CCCC3)c3c(-c4ccc5nc(C)oc5c4)c[nH]c3n2)c(OC)c1,IC50,"curve of first compound, second compound 0.0316 µM",> 10 µM
same,IC50,"curve of first compound, second compound 0.1 µM",> 10 µM
same,IC50,"curve of first compound, second compound 0.316 µM",> 10 µM
same,IC50,"curve of first compound, second compound 1 µM",< 0.0316 µM
same,IC50,"curve of first compound, second compound 3.16 µM",< 0.0316 µM
same,IC50,"curve of first compound, second compound 10 µM",< 0.0316 µM
same,"viability, T/C","second compound 0.0316 µM, first compound 0.0316 µM",80%
same,"viability, T/C","second compound 0.0316 µM, first compound 0.1 µM",105%
same,"viability, T/C","second compound 0.0316 µM, first compound 0.316 µM",84.1%
same,"viability, T/C","second compound 0.0316 µM, first compound 1 µM",105%
same,"viability, T/C","second compound 0.0316 µM, first compound 3.16 µM",127%
same,"viability, T/C","second compound 0.0316 µM, first compound 10 µM",125%
same,"viability, T/C","second compound 0.1 µM, first compound 0.0316 µM",61.9%
same,"viability, T/C","second compound 0.1 µM, first compound 0.1 µM",64.2%
same,"viability, T/C","second compound 0.1 µM, first compound 0.316 µM",60%
same,"viability, T/C","second compound 0.1 µM, first compound 1 µM",59.7%
same,"viability, T/C","second compound 0.1 µM, first compound 3.16 µM",75.8%
same,"viability, T/C","second compound 0.1 µM, first compound 10 µM",81.1%
same,"viability, T/C","second compound 0.316 µM, first compound 0.0316 µM",52.6%
same,"viability, T/C","second compound 0.316 µM, first compound 0.1 µM",59.9%
same,"viability, T/C","second compound 0.316 µM, first compound 0.316 µM",60.2%
same,"viability, T/C","second compound 0.316 µM, first compound 1 µM",62.9%
same,"viability, T/C","second compound 0.316 µM, first compound 3.16 µM",63.7%
same,"viability, T/C","second compound 0.316 µM, first compound 10 µM",67%
same,"viability, T/C","second compound 1 µM, first compound 0.0316 µM",49.9%
same,"viability, T/C","second compound 1 µM, first compound 0.1 µM",47%
same,"viability, T/C","second compound 1 µM, first compound 0.316 µM",47.1%
same,"viability, T/C","second compound 1 µM, first compound 1 µM",58.4%
same,"viability, T/C","second compound 1 µM, first compound 3.16 µM",59.6%
same,"viability, T/C","second compound 1 µM, first compound 10 µM",59.8%
same,"viability, T/C","second compound 3.16 µM, first compound 0.0316 µM",39.7%
same,"viability, T/C","second compound 3.16 µM, first compound 0.1 µM",45.9%
same,"viability, T/C","second compound 3.16 µM, first compound 0.316 µM",51.5%
same,"viability, T/C","second compound 3.16 µM, first compound 1 µM",50.4%
same,"viability, T/C","second compound 3.16 µM, first compound 3.16 µM",54.7%
same,"viability, T/C","second compound 3.16 µM, first compound 10 µM",53%
same,"viability, T/C","second compound 10 µM, first compound 0.0316 µM",48.6%
same,"viability, T/C","second compound 10 µM, first compound 0.1 µM",37.7%
same,"viability, T/C","second compound 10 µM, first compound 0.316 µM",47.1%
same,"viability, T/C","second compound 10 µM, first compound 1 µM",44.9%
same,"viability, T/C","second compound 10 µM, first compound 3.16 µM",44.7%
same,"viability, T/C","second compound 10 µM, first compound 10 µM",44%
